Test results: ChEMBL document CHEMBL1151126, “Studies on inhibitors of skin tumor promotion, III. Inhibitory effects of isoflavonoids from Wisteria brachybotrys on Epstein-Barr virus activation” (J Nat Prod, 1988)
Activity calls are given as the source filed them. No cut-off for these calls is given here.

Assays:
[1] = species on record: Mus musculus; assay: Displacement of [3H]TPA from TPA receptor in ICR mouse epidermal particulate fraction by Me2CO filter method
[2] = system: Raji; assay: Inhibition of 12-O-tetradecanoylphorbol-13-acetate-induced EBV-early antigen activation in human Raji cells assessed as early antigen induction at 10000 molar ratio after 48 hrs by indirect immunofluorescence technique relative to TPA; format: cell-based; parameters: scale not given: the % may be the effect or the level left; details: human gammaherpesvirus 4
[3] = system: HeLa; assay: Cytotoxicity in human HeLa cells assessed as decrease in cell number at 50 uM after 1 hr; format: cell-based
[4] = system: Raji; assay: Inhibition of 12-O-tetradecanoylphorbol-13-acetate-induced EBV-early antigen activation in human Raji cells assessed as early antigen induction at 1000 molar ratio after 48 hrs by indirect immunofluorescence technique relative to TPA; format: cell-based; parameters: scale not given: the % may be the effect or the level left; details: human gammaherpesvirus 4
[5] = Cytotoxicity against human Raji cells assessed as cell viability at 10000 molar ratio; format: cell-based; details: read-out: Activity
[6] = system: Raji; assay: Inhibition of EBV-early antigen activation in human Raji cells assessed as early antigen activation at 320 nM; format: cell-based; parameters: scale not given: the % may be the effect or the level left; details: human gammaherpesvirus 4
[7] = Cytotoxicity against human Raji cells assessed as cell viability at 1000 molar ratio; format: cell-based; details: read-out: Activity
[8] = system: HeLa; assay: Inhibition of TPA-stimulated [32P] incorporation into phospholipids in human HeLa cells at 50 uM after 1 hr; format: functional
[9] = system: Raji; assay: Inhibition of 12-O-tetradecanoylphorbol-13-acetate-induced EBV-early antigen activation in human Raji cells assessed as early antigen induction at 10 molar ratio after 48 hrs by indirect immunofluorescence technique relative to TPA; format: cell-based; parameters: scale not given: the % may be the effect or the level left; details: human gammaherpesvirus 4
[10] = system: HeLa; assay: Cytotoxicity in human HeLa cells assessed as effect on cell viability at 50 uM after 1 hr; format: cell-based
[11] = system: Raji; assay: Inhibition of 12-O-tetradecanoylphorbol-13-acetate-induced EBV-early antigen activation in human Raji cells assessed as early antigen induction at 100 molar ratio after 48 hrs by indirect immunofluorescence technique relative to TPA; format: cell-based; parameters: scale not given: the % may be the effect or the level left; details: human gammaherpesvirus 4
[12] = Cytotoxicity against human Raji cells assessed as cell viability at 10 molar ratio; format: cell-based; details: read-out: Activity
[13] = Cytotoxicity against human Raji cells assessed as cell viability at 100 molar ratio; format: cell-based; details: read-out: Activity

Compound	Activity [1]	Activity [2] [%]	Activity [3]	Activity [4] [%]	viability at 10000 molar ratio [5] [%]	Activity [6] [%]	viability at 1000 molar ratio [7] [%]	inhibition at 50 µM [8] [%]	Activity [9] [%]	Activity [10]	Activity [11] [%]	viability at 10 molar ratio [12] [%]	viability at 100 molar ratio [13] [%]
C=C[C@]1(C)CC[C@@](C)(C(C)C)c2cc3c4c(c[nH]c4c21)C[C@@H](CO)NC(=O)[C@H](C(C)C)N3C	Active												
COc1ccc(-c2coc3cc(O)ccc3c2=O)cc1 [FORMONONETIN]	inactive	0	Non-toxic	63.6	20	0	> 80	34.5	100	Non-toxic	92.6	100	> 80
COc1ccc(-c2coc3cc(O[C@@H]4O[C@H](CO)[C@@H](O)[C@H](O)[C@H]4O)ccc3c2=O)cc1 [ONONIN]		39.3	Non-toxic	76	80	2	> 80	12.3	100	Non-toxic	100	100	100
CCCCCCCCCCCCCC(=O)O[C@@H]1[C@@H](C)[C@@]2(O)[C@@H](C=C(CO)C[C@]3(O)C(=O)C(C)=C[C@@H]23)[C@@H]2C(C)(C)[C@]12OC(C)=O	Active												
COc1ccc(-c2coc3cc(OC(C)=O)ccc3c2=O)cc1		0	Non-toxic	15.2	80	0	> 80	40.2	100	Non-toxic	95.2	100	100
COc1ccc(-c2coc3cc(O)c(OC)cc3c2=O)cc1 [CASTANIN]	inactive	0	Non-toxic	36.4	80	34	> 80	16.4	100	Non-toxic	75.8	100	> 80
COc1ccc(-c2coc3cc(OC(C)=O)c(OC)cc3c2=O)cc1	inactive	0	Non-toxic	6	80	2.1	> 80	33.9	72.7	Non-toxic	42.3	100	> 80
COc1ccc(-c2coc3cc(O[C@@H]4O[C@H](CO)[C@@H](O)[C@H](O)[C@H]4O)c(OC)cc3c2=O)cc1 [WISTIN]		15.2	Non-toxic	78.5	50	0	> 80	0	100	Non-toxic	86.6	100	> 80
